Activity calls are given as the source filed them.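 The calls were made as follows: active = plate Z score at or below -3, or inhibition of at least 30% at 20 µM; inactive = the rest.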
Experiment: compounds lowering EGFP fluorescence in F442A cells, dose response, counter-screen for p/CIP destabilizer project (AID 2005);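 also: cells express EGFP alone from a CMV promoter as a counter screen for p/CIP-EGFP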
Conditions: F442A EGFP cells, EGFP fluorescence, 16 h, stronger effect = higher value

C=CCN1C(=O)/C(=C2/Sc3ccccc3N2C)SC1=Nc1ccccc1C
inhibition (EGFP decrease, at 10 µM): 1.3%
inhibition (at 20 µM): 8.6% (inactive)

COc1ccc(Cl)c(NC(=O)Nc2c(C)n(-c3ccccc3)c(=O)n2C)c1
inhibition (EGFP decrease, at 10 µM): 8.4%
inhibition (at 20 µM): 26.9% (inactive)

Cn1nc(-c2ccccn2)nc2c(=O)n(C)c(=O)nc1-2
inhibition (EGFP decrease, at 10 µM): 61.5%
inhibition (at 20 µM): 45.6%

COc1cccc(-c2nc(CS(=O)CC(=O)NCc3ccccc3)c(C)o2)c1 (configuration not stated)
inhibition (EGFP decrease, at 10 µM): 19.6%
inhibition (at 20 µM): -13.3% (inactive)

Cc1nc2sc(C(c3cccc(F)c3)N3CC(C)OC(C)C3)c(O)n2n1 (configuration not stated)
inhibition (EGFP decrease, at 10 µM): 6.2%
inhibition (at 20 µM): 30%

CCOc1ccccc1N1CCN(C(=O)c2cc(-c3cc(OC)ccc3OC)nc3ccccc23)CC1
inhibition (EGFP decrease, at 10 µM): 20.9%
inhibition (at 20 µM): 24.9% (inactive)

CCOc1ccc(N(CC(=O)Nc2cccc(Br)c2)S(C)(=O)=O)cc1
inhibition (EGFP decrease, at 10 µM): 36.5%
inhibition (at 20 µM): 12.4% (inactive)

CCCNC(=O)Cn1c(=O)oc2ccccc21
inhibition (EGFP decrease, at 10 µM): -20.6%
inhibition (at 20 µM): 8.8% (inactive)

CCN(CC)C(=O)c1oc2ccc(S(=O)(=O)N3CC(C)CC(C)C3)cc2c1C (configuration not stated)
inhibition (EGFP decrease, at 10 µM): 29.3%
inhibition (at 20 µM): 49.5%

O=c1c2ccccc2[nH]c2ccccc12
inhibition (EGFP decrease, at 10 µM): 13.8%
inhibition (at 20 µM): 18.3% (inactive)

COc1ccccc1N1CCN(C(=O)C(CC(C)C)NC(=O)C2CCCCC2)CC1 (configuration not stated)
inhibition (EGFP decrease, at 10 µM): -31.4%
inhibition (at 20 µM): 6% (inactive)

N#CCSCC(=O)Nc1ccc(F)cc1
inhibition (EGFP decrease, at 10 µM): 4.7%
inhibition (at 20 µM): 4% (inactive)

CC(=O)c1cccc(OCc2cc(C(=O)N3CC4C[C@@H]5CC3C[C@H](C4)C5)no2)c1
inhibition (EGFP decrease, at 10 µM): 37.1%
inhibition (at 20 µM): 27% (inactive)

CCC1(C)Cc2c(c(=O)n(-c3ccccc3)c3ncnc(N)c23)CO1 (configuration not stated)
inhibition (EGFP decrease, at 10 µM): 4.6%
inhibition (at 20 µM): -38.9% (inactive)

CCc1ccc(CN2CCC(n3nccc3NC(=O)c3ccccc3C)CC2)cc1
inhibition (EGFP decrease, at 10 µM): 22.7%
inhibition (at 20 µM): -0.4% (inactive)

CC(C)[C@H](NC(=O)c1ccc(F)cc1)C(=O)NC1=NCCS1
inhibition (EGFP decrease, at 10 µM): 21.6%
inhibition (at 20 µM): 2.2% (inactive)

COc1cccc2[nH]c(C(=O)NCCc3ccccc3)cc12
inhibition (EGFP decrease, at 10 µM): 4.4%
inhibition (at 20 µM): 17.4% (inactive)

CC1(C)C(=O)Nc2ccccc2N1C(=O)COc1ncnc2c(Cl)cc(Cl)cc12
inhibition (EGFP decrease, at 10 µM): 18.4%
inhibition (at 20 µM): 17.9% (inactive)

CS(=O)(=O)Nc1ccccc1C(=O)Nc1cc(Cl)cc(Cl)c1
inhibition (EGFP decrease, at 10 µM): 19.6%
inhibition (at 20 µM): -18.3% (inactive)

Nc1ncnc2c1ncn2[C@H]1C[C@H](O)[C@@H](CO)O1
inhibition (EGFP decrease, at 10 µM): 1.2%
inhibition (at 20 µM): 26.2% (inactive)

Nc1cnn(C2OC(CO)C(O)C2O)c(=O)n1 (configuration not stated)
inhibition (EGFP decrease, at 10 µM): 18.6%
inhibition (at 20 µM): 22.1% (inactive)

CCN1C(=O)/C(=C2\C=Cc3cc(C)ccc3N2CC)OC1=S
inhibition (EGFP decrease, at 10 µM): -35.7%
inhibition (at 20 µM): -30.8% (inactive)

O=C(CN1C(=O)c2ccccc2C1=O)N(CCO)Cc1ccccc1
inhibition (EGFP decrease, at 10 µM): -7.7%
inhibition (at 20 µM): 16% (inactive)

CCOc1ccc(-c2nc(-c3ccccc3)no2)cc1OCC
inhibition (EGFP decrease, at 10 µM): -19.3%
inhibition (at 20 µM): 1.4% (inactive)

COc1ccc2[nH]cc(CC(=O)O)c2c1
inhibition (EGFP decrease, at 10 µM): 39.2%
inhibition (at 20 µM): 23.6% (inactive)

Cc1cc(C)n(-c2nc3c(c(=O)[nH]c(=O)n3C)n2CC(O)COc2ccccc2)n1 (configuration not stated)
inhibition (EGFP decrease, at 10 µM): -7.9%
inhibition (at 20 µM): 7.8% (inactive)

O=S(=O)(Nc1cc(Sc2ncn[nH]2)c(O)c2ccccc12)c1ccccc1
inhibition (EGFP decrease, at 10 µM): 38.3%
inhibition (at 20 µM): 2.2% (inactive)

CC(C)(C)NC(=O)c1ccc2c(c1)N(CC(=O)N1CCN(c3ccc(F)cc3)CC1)C(=O)C(C)(C)O2
inhibition (EGFP decrease, at 10 µM): 8.7%
inhibition (at 20 µM): 12.7% (inactive)

CC(OC(=O)c1cccc(-n2cnnn2)c1)C(=O)N(C)c1ccccc1 (configuration not stated)
inhibition (EGFP decrease, at 10 µM): 23.3%
inhibition (at 20 µM): 6% (inactive)

CN(Cc1ccco1)C(=O)C1CCC(=O)N(CCc2cccc(F)c2)C1 (configuration not stated)
inhibition (EGFP decrease, at 10 µM): 5.1%
inhibition (at 20 µM): 1.2% (inactive)

O=C(NCC1CCCO1)C1CCCCN1S(=O)(=O)c1ccc(F)cc1 (configuration not stated)
inhibition (EGFP decrease, at 10 µM): -13.3%
inhibition (at 20 µM): 9.4% (inactive)

COc1ccc(CN(CC(=O)NCc2ccc(F)cc2)C(=O)CCC(=O)Nc2ccccn2)cc1
inhibition (EGFP decrease, at 10 µM): -14.2%
inhibition (at 20 µM): 16.1% (inactive)

CCC1=C2CC[C@H]3C(=O)N(C)C(=O)[C@H]3[C@H]2[C@@]2(Cc3ccccc3)C(=NCCOC)OC(=O)N2C1=O
inhibition (EGFP decrease, at 10 µM): -6.2%
inhibition (at 20 µM): 13.4% (inactive)

C/C(N)=C(/C#N)C(=O)CSc1nnnn1-c1ccc(C)cc1C
inhibition (EGFP decrease, at 10 µM): 18%
inhibition (at 20 µM): 3.2% (inactive)

COc1ccc2[nH]c(=O)c(-c3noc(-c4ccccc4)n3)cc2c1
inhibition (EGFP decrease, at 10 µM): 22.9%
inhibition (at 20 µM): 9.8% (inactive)

O=C(COC(=O)c1cnccn1)c1ccc(OC(=O)c2ccccc2)cc1
inhibition (EGFP decrease, at 10 µM): 21%
inhibition (at 20 µM): 17% (inactive)

COC(=O)CS(=O)(=O)c1cccc2cccnc12
inhibition (EGFP decrease, at 10 µM): 38.4%
inhibition (at 20 µM): 19.7% (inactive)

NNC(=O)c1ccc(-c2cccc([N+](=O)[O-])c2)o1
inhibition (EGFP decrease, at 10 µM): 4.6%
inhibition (at 20 µM): 9.1% (inactive)

Cc1nn(C)c(Cl)c1S(=O)(=O)N[C@@H](c1ccccc1)[C@]1(C)C[C@H]1[C@@H](C)C(=O)Nc1ccc2ccccc2c1
inhibition (EGFP decrease, at 10 µM): 34.6%
inhibition (at 20 µM): 11.3% (inactive)

CCCCN(Cc1ccccc1)S(=O)(=O)c1ccc2[nH]c(=O)oc2c1
inhibition (EGFP decrease, at 10 µM): 7.9%
inhibition (at 20 µM): 11.8% (inactive)

CN(C)c1ccc(C(=O)Nc2cc(C(F)(F)F)ccc2-n2cncn2)cc1
inhibition (EGFP decrease, at 10 µM): 5%
inhibition (at 20 µM): 10.4% (inactive)

COc1ccccc1NC(=S)NNC(=O)c1ccc(Cl)cc1Cl
inhibition (EGFP decrease, at 10 µM): -23.9%
inhibition (at 20 µM): 2% (inactive)

CCCCC(=O)NNC(=S)NC(=O)CCC
inhibition (EGFP decrease, at 10 µM): 8.3%
inhibition (at 20 µM): 15.7% (inactive)

CCCC(C)C1(CC)C(=O)NC(=Nc2ccc(F)cc2)NC1=O (configuration not stated)
inhibition (EGFP decrease, at 10 µM): 37.5%
inhibition (at 20 µM): 27.3% (inactive)

O=C(c1ccco1)N1CCN(C(=O)c2ccccc2[N+](=O)[O-])CC1
inhibition (EGFP decrease, at 10 µM): 10.5%
inhibition (at 20 µM): 11.1% (inactive)

CC(OC(=O)C1CSC2(c3ccc(F)cc3)CCC(=O)N12)C(=O)NC(N)=O (configuration not stated)
inhibition (EGFP decrease, at 10 µM): 48.2%
inhibition (at 20 µM): -5.1% (inactive)

Cc1ccc(SCC(=O)N(C)C2CCS(=O)(=O)C2)cc1 (configuration not stated)
inhibition (EGFP decrease, at 10 µM): 17.7%
inhibition (at 20 µM): 28.3% (inactive)

COc1ccc(S(=O)(=O)N2c3ccccc3OCC2c2ccccc2)cc1 (configuration not stated)
inhibition (EGFP decrease, at 10 µM): -12.8%
inhibition (at 20 µM): 1.8% (inactive)

COc1cc(C2NCCC(=O)C2(C)C)cc(OC)c1OC (configuration not stated)
inhibition (EGFP decrease, at 10 µM): -1.8%
inhibition (at 20 µM): 21.4% (inactive)

O=C(Nc1ccnn1C1CCN(Cc2ccccc2OC(F)F)CC1)c1cccc(F)c1
inhibition (EGFP decrease, at 10 µM): 26.5%
inhibition (at 20 µM): 37.8%

O=C(CN1CCN(Cc2ccccc2Cl)C1=O)NCc1ccco1
inhibition (EGFP decrease, at 10 µM): 17.1%
inhibition (at 20 µM): 31.5%

COc1cc2c(cc1NC(=O)/C=C/c1ccccc1)oc1ccccc12
inhibition (EGFP decrease, at 10 µM): 12.4%
inhibition (at 20 µM): -0.8% (inactive)

CC(=O)Nc1ccc(S(=O)(=O)Nc2nccs2)cc1
inhibition (EGFP decrease, at 10 µM): 21.2%
inhibition (at 20 µM): 15.6% (inactive)

CC1(C)OC(=O)C(=CNC(CCC(N)=O)C(=O)O)C(=O)O1 (configuration not stated)
inhibition (EGFP decrease, at 10 µM): -1.3%
inhibition (at 20 µM): 15.1% (inactive)

Cc1nc2cc3ccccc3cc2c(=O)[nH]1
inhibition (EGFP decrease, at 10 µM): 12.2%
inhibition (at 20 µM): 3.3% (inactive)

COc1ccc2c(C)cc3nncn3c2c1
inhibition (EGFP decrease, at 10 µM): -2.7%
inhibition (at 20 µM): 14.7% (inactive)

— PubChem BioAssay AID2005 (Sanford-Burnham Center for Chemical Genomics, 2009)
